In series [1] the target is Rho-associated protein kinase 1 (Homo sapiens, UniProt Q13464). Nature of the series: Inhibition of human recombinant ROCK1 expressed in Sf9 cells […].
Series [2] is described as follows: Volume of distribution in Sprague-Dawley rat at 1.6 mg/kg. It is filed as ADME, organism-based. On the set-up: dose 1.6 mg/kg. The note with it: in vivo, read-out: Vdss.
Series [3] can be described thus: Clearance in Sprague-Dawley rat at 1.6 mg/kg. Set-up: dose 1.6 mg/kg. The note with it: in vivo. It is filed as ADME, organism-based.
For the next series, the system named is Thoracic aorta. Nature of the series: Dilatory activity against phenylephrine-induced contraction of Sprague-Dawley rat thoracic aorta. It is filed as functional, tissue-based.
The nature of series [4]: Half life in Sprague-Dawley rat at 1.6 mg/kg. It is filed as ADME, organism-based. On the set-up: dose 1.6 mg/kg. As to conditions: in vivo.
Series [5] concerns the target Ribosomal protein S6 kinase alpha-1 (Homo sapiens, UniProt Q15418). Kind of series: Inhibition of RSK1.
Series [6] in a line: Oral bioavailability in Sprague-Dawley rat at 1.6 mg/kg, po. The note with it: in vivo. It is filed as ADME, organism-based.
Series [7] deals with Ribosomal protein S6 kinase beta-1 (Homo sapiens, UniProt P23443). Nature of the series: Inhibition of p70S6K.
Chain of Ribosomal protein S6 kinase beta-1 (P23443 whole entry): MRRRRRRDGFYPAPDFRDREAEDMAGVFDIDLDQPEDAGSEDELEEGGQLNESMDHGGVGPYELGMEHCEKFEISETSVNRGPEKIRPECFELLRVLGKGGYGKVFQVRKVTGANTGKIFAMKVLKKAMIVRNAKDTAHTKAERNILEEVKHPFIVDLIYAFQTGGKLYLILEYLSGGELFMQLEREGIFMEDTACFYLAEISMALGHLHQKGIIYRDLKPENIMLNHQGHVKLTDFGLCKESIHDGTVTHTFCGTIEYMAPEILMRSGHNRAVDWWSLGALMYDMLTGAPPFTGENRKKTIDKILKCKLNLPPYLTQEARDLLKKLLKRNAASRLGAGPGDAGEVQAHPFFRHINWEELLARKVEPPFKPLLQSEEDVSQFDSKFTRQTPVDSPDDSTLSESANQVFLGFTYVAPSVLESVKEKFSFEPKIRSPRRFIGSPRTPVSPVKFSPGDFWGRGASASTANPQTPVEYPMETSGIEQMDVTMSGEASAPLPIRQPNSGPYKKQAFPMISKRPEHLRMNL
Series [8] in a line: Cmax in Sprague-Dawley rat at 1.6 mg/kg, iv. Type of series: ADME, organism-based. Set-up: dose 1.6 mg/kg, route intravenous. The note with it: in vivo.
Series [9] in a line: Half life in Sprague-Dawley rat at 0.9 mg/kg. Type of series: ADME, organism-based. The note with it: in vivo. On the set-up: dose 0.9 mg/kg.
Series [10] can be described thus: Clearance in Sprague-Dawley rat at 0.9 mg/kg. Type of series: ADME, organism-based. On the set-up: dose 0.9 mg/kg. The note with it: in vivo.
The nature of series [11]: Volume of distribution in Sprague-Dawley rat at 0.9 mg/kg. It is filed as ADME, organism-based. On the set-up: dose 0.9 mg/kg. The note with it: in vivo, read-out: Vdss.
Series [12] is described as follows: Oral bioavailability in Sprague-Dawley rat at 0.9 mg/kg, po. It is filed as ADME, organism-based. As to conditions: in vivo.
The nature of series [13]: Cmax in Sprague-Dawley rat at 0.9 mg/kg, iv. It is filed as ADME, organism-based. On the set-up: dose 0.9 mg/kg, route intravenous. The note with it: in vivo.
Series [14] is described as follows: Oral bioavailability in Sprague-Dawley rat at 1.7 mg/kg, po. The note with it: in vivo. It is filed as ADME, organism-based.
Series [15] in a line: Clearance in Sprague-Dawley rat at 1.7 mg/kg. It is filed as ADME, organism-based. Set-up: dose 1.7 mg/kg. The note with it: in vivo.
A short description of series [16]: Volume of distribution in Sprague-Dawley rat at 1.7 mg/kg. It is filed as ADME, organism-based. On the set-up: dose 1.7 mg/kg. As to conditions: in vivo, read-out: Vdss.
Series [17] in a line: Half life in Sprague-Dawley rat at 1.7 mg/kg. Type of series: ADME, organism-based. Set-up: dose 1.7 mg/kg. As to conditions: in vivo.
The nature of series [18]: Cmax in Sprague-Dawley rat at 1.7 mg/kg, iv. It is filed as ADME, organism-based. On the set-up: dose 1.7 mg/kg, route intravenous. The note with it: in vivo.
The nature of series [19]: Oral bioavailability in Sprague-Dawley rat at 1.8 mg/kg, po. Type of series: ADME, organism-based. As to conditions: in vivo.
Series [20] can be described thus: Plasma concentration in spontaneously hypertensive rat at 3 mg/kg after 2 hrs. It is filed as ADME, organism-based. Set-up: dose 3 mg/kg.
A short description of series [21]: Half life in Sprague-Dawley rat at 1.8 mg/kg. Type of series: ADME, organism-based. Set-up: dose 1.8 mg/kg. As to conditions: in vivo.
Series [22] can be described thus: Plasma concentration in spontaneously hypertensive rat at 3 mg/kg after 1 hr. It is filed as ADME, organism-based. On the set-up: dose 3 mg/kg.
Series [23] in a line: Plasma concentration in spontaneously hypertensive rat at 3 mg/kg after 4 hrs. Type of series: ADME, organism-based. On the set-up: dose 3 mg/kg.
Series [24] can be described thus: Clearance in Sprague-Dawley rat at 1.8 mg/kg. Type of series: ADME, organism-based. Set-up: dose 1.8 mg/kg. As to conditions: in vivo.
Series [25] in a line: Cmax in Sprague-Dawley rat at 1.8 mg/kg, iv. It is filed as ADME, organism-based. Set-up: dose 1.8 mg/kg, route intravenous. As to conditions: in vivo.
Series [26] can be described thus: Plasma concentration in spontaneously hypertensive rat at 3 mg/kg after 0.5 hrs. Type of series: ADME, organism-based. On the set-up: dose 3 mg/kg.
Series [27] can be described thus: Plasma concentration in spontaneously hypertensive rat at 3 mg/kg after 24 hrs. Set-up: dose 3 mg/kg. It is filed as ADME, organism-based.
Series [28] can be described thus: Plasma concentration in spontaneously hypertensive rat at 3 mg/kg after 8 hrs. It is filed as ADME, organism-based. On the set-up: dose 3 mg/kg.
Series [29] can be described thus: Volume of distribution in Sprague-Dawley rat at 1.8 mg/kg. On the set-up: dose 1.8 mg/kg. Type of series: ADME, organism-based. As to conditions: in vivo, read-out: Vdss.
For a further series, the system named is Rattus norvegicus. Kind of series: Decrease in mean arterial pressure in spontaneously hypertensive rat at 3 mg/kg, po. Type of series: functional, organism-based. On the set-up: dose 3 mg/kg. As to conditions: Artery.
Series [30] can be described thus: Clearance in Sprague-Dawley rat. It is filed as ADME, organism-based. The note with it: in vivo.
Series [31] in a line: Cmax in Sprague-Dawley rat at 1.3 mg/kg, iv. It is filed as ADME, organism-based. As to conditions: in vivo. Set-up: dose 1.3 mg/kg, route intravenous.
Series [32] in a line: Volume of distribution in Sprague-Dawley rat at 1.3 mg/kg. Type of series: ADME, organism-based. On the set-up: dose 1.3 mg/kg. As to conditions: in vivo, read-out: Vdss.
Series [33] can be described thus: Half life in Sprague-Dawley rat at 1.3 mg/kg. It is filed as ADME, organism-based. Set-up: dose 1.3 mg/kg. As to conditions: in vivo.
The nature of series [34]: Oral bioavailability in Sprague-Dawley rat at 1.3 mg/kg, po. The note with it: in vivo. Type of series: ADME, organism-based.
Series [35] is described as follows: Clearance in Sprague-Dawley rat at 1.3 mg/kg. Type of series: ADME, organism-based. Set-up: dose 1.3 mg/kg. As to conditions: in vivo.

One may read the IC50 as the point on the concentration scale where inhibition reaches its midpoint. As a reminder, the clearance is the volume of plasma or blood freed of the substance per unit of time. A word on the half-life: it is how long it takes for the measured level to halve. A higher half-life goes with slow loss. One may read the bioavailability as the share of a dose that reaches the circulation, judged against a reference dose that is usually intravenous. What is called Cmax is the peak of the concentration-time curve.

Chain of Ribosomal protein S6 kinase alpha-1 (Q15418 whole entry): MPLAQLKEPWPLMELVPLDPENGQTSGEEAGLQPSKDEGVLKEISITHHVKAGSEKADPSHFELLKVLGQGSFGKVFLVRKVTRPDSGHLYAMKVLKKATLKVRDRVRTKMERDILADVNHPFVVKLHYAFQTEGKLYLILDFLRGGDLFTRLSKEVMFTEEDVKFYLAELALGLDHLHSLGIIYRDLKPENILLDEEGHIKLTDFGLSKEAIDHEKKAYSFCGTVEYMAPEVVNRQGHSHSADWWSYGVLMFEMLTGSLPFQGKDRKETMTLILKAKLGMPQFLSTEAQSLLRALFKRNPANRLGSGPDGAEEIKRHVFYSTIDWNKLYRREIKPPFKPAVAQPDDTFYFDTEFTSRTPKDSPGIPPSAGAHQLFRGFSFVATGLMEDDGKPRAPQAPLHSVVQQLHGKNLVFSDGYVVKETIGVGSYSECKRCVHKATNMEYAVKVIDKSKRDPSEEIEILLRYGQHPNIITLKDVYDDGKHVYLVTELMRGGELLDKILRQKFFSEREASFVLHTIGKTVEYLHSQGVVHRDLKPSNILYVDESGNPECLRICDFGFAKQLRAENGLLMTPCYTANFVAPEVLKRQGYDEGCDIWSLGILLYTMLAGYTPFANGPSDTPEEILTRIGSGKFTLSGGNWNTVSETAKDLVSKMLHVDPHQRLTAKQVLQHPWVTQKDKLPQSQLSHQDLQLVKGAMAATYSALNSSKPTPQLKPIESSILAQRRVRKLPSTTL
Chain of Rho-associated protein kinase 1 (Q13464 whole entry): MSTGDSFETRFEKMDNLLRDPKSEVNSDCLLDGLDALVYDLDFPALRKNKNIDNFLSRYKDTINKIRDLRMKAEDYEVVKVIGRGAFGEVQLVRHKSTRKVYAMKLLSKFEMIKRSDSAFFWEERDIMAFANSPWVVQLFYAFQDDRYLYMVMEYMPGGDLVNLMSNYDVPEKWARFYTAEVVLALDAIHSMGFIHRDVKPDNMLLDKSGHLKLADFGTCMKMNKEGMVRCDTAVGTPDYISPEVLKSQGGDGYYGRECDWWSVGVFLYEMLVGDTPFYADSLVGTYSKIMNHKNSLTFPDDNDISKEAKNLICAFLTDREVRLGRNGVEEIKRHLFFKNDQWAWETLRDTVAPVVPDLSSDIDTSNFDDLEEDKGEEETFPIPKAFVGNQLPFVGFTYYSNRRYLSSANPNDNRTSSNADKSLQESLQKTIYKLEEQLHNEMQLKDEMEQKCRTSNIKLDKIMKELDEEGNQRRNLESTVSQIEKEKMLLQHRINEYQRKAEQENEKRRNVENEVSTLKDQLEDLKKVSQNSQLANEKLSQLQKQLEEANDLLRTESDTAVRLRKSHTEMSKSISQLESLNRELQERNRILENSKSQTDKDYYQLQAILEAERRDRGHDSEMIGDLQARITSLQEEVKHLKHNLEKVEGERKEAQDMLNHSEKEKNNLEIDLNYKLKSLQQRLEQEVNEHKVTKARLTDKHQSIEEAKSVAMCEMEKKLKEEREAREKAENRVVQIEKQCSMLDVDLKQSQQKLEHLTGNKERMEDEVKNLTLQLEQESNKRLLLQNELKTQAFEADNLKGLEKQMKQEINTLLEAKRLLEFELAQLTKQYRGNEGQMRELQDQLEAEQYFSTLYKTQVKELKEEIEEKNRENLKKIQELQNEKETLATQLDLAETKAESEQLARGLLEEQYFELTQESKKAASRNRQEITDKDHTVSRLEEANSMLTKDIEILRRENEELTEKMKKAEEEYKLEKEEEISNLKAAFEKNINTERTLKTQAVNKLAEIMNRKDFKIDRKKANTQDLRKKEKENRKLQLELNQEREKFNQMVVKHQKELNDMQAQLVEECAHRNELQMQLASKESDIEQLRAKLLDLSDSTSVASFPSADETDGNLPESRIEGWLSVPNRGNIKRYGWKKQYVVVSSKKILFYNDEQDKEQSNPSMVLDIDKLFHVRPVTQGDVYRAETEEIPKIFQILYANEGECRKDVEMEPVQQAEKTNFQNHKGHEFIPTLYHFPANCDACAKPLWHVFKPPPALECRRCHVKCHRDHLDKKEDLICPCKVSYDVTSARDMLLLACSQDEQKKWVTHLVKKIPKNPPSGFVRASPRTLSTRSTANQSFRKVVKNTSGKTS

Regarding `CC1=C(C(=O)Nc2ccc3[nH]ncc3c2)C(c2ccc(F)cc2)CC(=O)N1` (stereo unspecified), the IC50 in series [1] is 51 nM; in the series on Thoracic aorta, 200 nM; in [5], 1410 nM; in [7], 1100 nM. Moreover, in series [2], the Vd was 2.1 L/kg. Also, the clearance in series [3] stood at 47 mL/min/kg. The compound also gave a half-life in series [4] of 1 h. In series [6], the bioavailability worked out at 14%. The compound also showed a Cmax in series [8] of 668 ng/mL.
In the case of `CC1=C(C(=O)Nc2ccc3[nH]ncc3c2)C(c2ccc(C(F)(F)F)cc2)CC(=O)N1` (stereo unspecified), the IC50 in series [1] was determined as 5 nM; in the series with Thoracic aorta, 39 nM; in series [5] it was 740 nM. In series [9], this compound gave a half-life of 0.7 h. This compound displayed a clearance in [10] of 51 mL/min/kg. Further, the Vd in series [11] is 2.3 L/kg. For the same compound, the bioavailability in series [12] worked out at 22%. The peak level in series [13] (Cmax) was 315 ng/mL.
For the compound `CC1=C(C(=O)Nc2ccc3[nH]ncc3c2F)C(c2ccc(C(F)(F)F)cc2)CC(=O)N1` (stereo unspecified), the 50% inhibitory concentration (IC50) in series [1] was 2500 nM; in series [5], over 10000 nM; in series [7] it was over 10000 nM.
`CC1=C(C(=O)Nc2cc(Cl)c3[nH]ncc3c2)C(c2ccc(C(F)(F)F)cc2)CC(=O)N1` (stereo unspecified) [GSK-466317A]: the IC50 in [1] amounted to 8 nM; in series [5] it was 90 nM; in [7] it was 590 nM. This compound showed a half-life in series [9] of 1.2 h. In addition, in [10], the clearance amounted to 81 mL/min/kg. Besides, in series [11], the Vd is 3.9 L/kg. For the same compound, the bioavailability in series [12] came to 29%. In [13], this compound gave a Cmax of 424 ng/mL.
For `CC1=C(C(=O)Nc2ccc3[nH]ncc3c2)C(c2ccc3ccccc3c2)CC(=O)N1` (stereo unspecified) [GSK-270822A], the IC50 in series [1] was 9 nM; with Thoracic aorta, 76 nM; in [5], 1100 nM; in series [7], 1550 nM. The bioavailability in series [14] came to 13%. In series [15], this compound showed a clearance of 45 mL/min/kg. In addition, the Vd in series [16] worked out at 1.8 L/kg. Also, in series [17], the half-life was 0.9 h. This compound also yielded a Cmax in series [18] of 700 ng/mL.
`CC1=C(C(=O)Nc2cc3cn[nH]c3cc2F)C(c2ccc(C(F)(F)F)cc2)CC(=O)N1` (stereo unspecified): the IC50 in [1] was 14 nM; with Thoracic aorta, 190 nM; in series [5], 780 nM; in series [7], 1940 nM. In series [19], the bioavailability stood at 61%. The same compound came in with a concentration at 2 h in [20] of 190 ng/mL. In series [21], this compound showed a half-life of 1 h. In series [22], this compound registered a concentration at 1 h of 192 ng/mL. The same compound gave a concentration at 4 h in series [23] of 110 ng/mL. In [24], this compound came in with a clearance of 25 mL/min/kg. In series [25], this compound displayed a Cmax of 1560 ng/mL. Also, the concentration at 0.5 h in series [26] stood at 193 ng/mL. Besides, in series [27], the concentration at 24 h is 2 ng/mL. Also, the concentration at 8 h in series [28] turned out to be 74 ng/mL. The Vd in [29] was 1.4 L/kg. For the same compound, the Activity result with Rattus norvegicus was “Dose-dependent effect”.
Regarding `CC1=C(C(=O)Nc2ccc3[nH]ncc3c2)C(c2ccc(Cl)c(Cl)c2)CC(=O)N1` (stereo unspecified) [GSK-299115A], the IC50 in series [1] stood at 8 nM; in series [5] it was 620 nM; in series [7], 560 nM. Also, in series [9], the half-life is 0.8 h. In series [10], the clearance came to 57 mL/min/kg. For the same compound, the Vd in series [11] was determined as 2.4 L/kg. The compound also came in with a bioavailability in series [12] of 1%. Also, the Cmax in [13] turned out to be 334 ng/mL.
`CC1=C(C(=O)Nc2ccc3[nH]ncc3c2)C(c2ccc(F)cc2)NC(=O)N1` (stereo unspecified) [GSK-180736A]: the IC50 in series [1] came to 14 nM; with Thoracic aorta, 760 nM; in [5], 3100 nM; in [7] it was 2850 nM. The clearance in [30] is 50 mL/min/kg. This compound had a Cmax in [31] of 567 ng/mL.
Consider `CC1=C(C(=O)Nc2ccc3[nH]nc(C)c3c2)C(c2ccc(C(F)(F)F)cc2)CC(=O)N1` (stereo unspecified) [GSK-466314A], for which the IC50 turned out to be 9 nM in [1], 130 nM in the series on Thoracic aorta, 1950 nM in series [5] and 4790 nM in [7]. Moreover, the Vd in [32] turned out to be 2.8 L/kg. In series [33], the half-life was 2 h. In [31], this compound registered a Cmax of 672 ng/mL. Besides, the bioavailability in series [34] worked out at 18%. This compound also registered a clearance in series [35] of 24 mL/min/kg.

(Values after ChEMBL document CHEMBL1139217, “Development of dihydropyridone indazole amides as selective Rho-kinase inhibitors” (J Med Chem, 2007).)
